Test results: patent US12263156B2, “Use of small molecule inhibitors of the BfrB:Bfd interaction in biofilms” (priority 2020, dated 2025)
“And” between values parts separate entries of the source, which are not always exact repeats. Equal values may be shown once.

Key:
[1] = biological target: BfrB (apo-BfrB) (Pseudomonas aeruginosa (strain ATCC 15692 / DSM 22644 / CIP 104116 / JCM 14847 / LMG 12228 / 1C / PRS 101 / PAO1), UniProt Q9HY79); assay: Fluorescence polarization measurement of dissociation constant (Kd); type: binding; conditions: for Kd: 100 mM potassium phosphate buffer pH 7.6, 1 mM TCEP, 0.5% DMSO, average ± SD
Description: Values were obtained in 100 mM potassium phosphate buffer (pH 7.6) containing 1 mM TCEP and 0.5% DMSO. The initial concentrations of KM-5-25 and KM-5-66 were 5 μM. The Kd values are the average and standard deviation from three independent measurements. […] The IC50 values are the average and the standard derivations from three independent experiments.
Prior to testing the effect that the 4-substituted isoindoline-1,3-dione derivatives might exert on P. aeruginosa cells, the strength of their interaction with BfrB was evaluated in vitro with a fluorescence polarization assay developed based on the intrinsic fluorescence of the isoindoline-1,3-dione moiety.

[2] = tested on: P. aeruginosa PAO1; assay: Half maximal inhibitory concentration (IC50) of planktonic growth, CFU/mL enumeration; type: cell-based, Pseudomonas aeruginosa; conditions: for IC50: Pseudomonas aeruginosa, PAO1
Description: Chemicals were purchased from Fisher Scientific (Waltham, MA) unless otherwise stated. P. aeruginosa PAO1 was obtained from the University of Washington Genome center.^80 The PAO1 strain expressing enhanced yellow fluorescent protein (EYFP) was prepared as described in Soldano, A.; Yao, H.; Chandler, J. R.; Rivera, M. (2020) Inhibiting Iron Mobilization from Bacterioferritin in Pseudomonas aeruginosa Impairs Biofilm Formation Irrespective of Environmental Iron Availability. ACS Infect. Dis. 6, 447-458. 10.1021/acsinfecdis.9b00398.^26 Clinical isolates of P. aeruginosa were purchased from JMI Laboratories (North Liberty, IA, USA). […] Starter cultures of P. aeruginosa PAO1 in 5 mL LB media were grown for 13 hours in 50 mL conical tubes at 37° C. and 220 rpm. For biofilm experiments, a EYFP-expressing P. aeruginosa strain was routinely grown in Pseudomonas Isolation (PI) media (20 g L^−1 peptone, 0.3 g L^−1 MgCl2·6H O, 10 g L^−1 K2SO4, 25 mg L^−1 irgasan, and 20 mL L^−1 glycerol, pH 7.0). Starter cultures were grown from a single colony at 37° C. and shaking at 220 rpm for 14 hours in 5 mL PI media supplemented with 10 μM Fe. Pellicle biofilms were cultured for 48 hours at 30° C. in PI media supplemented with 20 μM Fe. Surface-attached biofilms were cultured in AB minimal media^81 supplemented with trace metals [0.15 μM (NH4)2MoO4, 3 μM CuSO4, 2 μM Co(NO3)2, 9.4 μM Na2B4O7, and 7.6 μM ZnSO4], 3 mM glucose and 15 μM Fe. Iron supplementation was carried out by addition of a small volume of filter-sterilized 10 mM (NH4)2Fe(SO4)2 (pH˜2.0) solution. […]; IC50 values (Table 1 below) were determined as reported previously^25 with small modifications. In brief: precultures of P. aeruginosa PAO1 (5 mL) were grown in LB media for 13 hours at 37° C. and 220 rpm in 50 mL conical tubes (VWR International, PA). The cells were centrifuged for 5 min at 4,000 rpm and 4° C., washed two times and then diluted in buffer (100 mM KH2PO4 and 15 mM (NH4)2SO4 to an optical density at 600 nm (OD600) of 0.1. A small volume of compound stock solution (10 mM) was transferred to a microcentrifuge tube, initially diluted with DMSO to 20 μL, and then diluted to 1 mL with preculture cell suspension in defined media with OD600=0.0001, so the final DMSO concentration is 2%. The resultant cell suspension (200 μL) was transferred to a clear-bottom polystyrene 96-well plate (VWR International, PA) covered with a lid and incubated at 35° C. and 205 cpm for 24 h in a Synergy H1 microplate reader (Biotek Instruments Inc., Winooski, VT). The cell cultures were serially diluted and then plated on PI Agar (PIA; BD Biosciences, San Jose, CA) plates for enumeration of viable cells (CFU/mL). The % growth was calculated from the ratio CFU/mL(treated)/CFU/mL(untreated control). To calculate the IC50 values, the % growth was plotted as a function of compound concentration, expressed as log[compound] (μM), and fitted to the 4-parameter logistic model describing the sigmoid-shaped response pattern (equation 1),^83 where b is the slope factor, max is the upper asymptote (plateau), and min is the lower asymptote. Values are the average and standard deviation from three independent experiments.

[3] = tested on: EYFP-expressing P. aeruginosa PAO1 biofilms; assay: Flow cell biofilm assay (CLSM imaging, COMSTAT biomass); type: cell-based, Pseudomonas aeruginosa; conditions: 3-day old flow cell biofilms, 24 h treatment at 25× the MIC
Description: ACS Infect. Dis. […] The experimental shear stress was 0.14-dyn/cm^2 (shear rate=14 s^−1, pressure=7.1 mbar, flow rate=0.4 mL/min) and the switch time was set to 540 s. […] During biofilm growth and challenge with antibacterial, the culture medium in the reservoirs was removed every 12 hours and replaced with fresh pre-warmed medium. […] The biofilms were imaged with the aid of a Leica TCS SP8 confocal microscope (Leica Microsystems, Germany) using a HC PL apo CS2 63×/1.4 oil objective. […] Image stacks were acquired with a z-step size of 0.3 μm at randomly chosen positions. The Leica Application Suite X (LAS-X) software was used for image stack processing.^54 Quantitative analysis of biofilm biomass was performed using the COMSTAT computer program^54 and the Otsu method of automatic thresholding.^85
The treated biofilms were counterstained with the cell impermeable fluorescent nucleic acid dye Sytox Red and then imaged with the aid of confocal laser scanning microscopy (CLSM).

[4] = tested on: EYFP-expressing P. aeruginosa PAO1 pellicle biofilms; assay: Pellicle biofilm assay (CLSM imaging, COMSTAT biomass); type: cell-based, Pseudomonas aeruginosa; conditions: 24 h; for tolerance or susceptibility of pellicle biofilms (CLSM): 2-day old pellicles, ciprofloxacin, tobramycin 25× and 50× the MIC, colistin above 10× the MIC
Description: (§1) Pellicle biofilms of EYFP-expressing P. aeruginosa PAO1 or clinical isolates were grown in PI media supplemented with 20 μM Fe. Starter cultures were diluted to OD600=0.001 in 4 mL media, placed in 35×10 mm petri dishes and incubated statically at 30° C. for 48 hours. The pellicles were transferred onto circular (1.5 cm diameter) glass coverslips by gently allowing the surface of a coverslip to contact a pellicle. The pellicle-adhered coverslip was washed in PBS and then deposited on top of 1.5 mL of AB challenge media contained in a well of a 12-well microplate, with the pellicle exposed to the media. […] The coverslip-adhered pellicles were exposed to challenge media at 30° C. for 24 hours, changing the challenge media every 12 hours by transferring the pellicle-adhered coverslip to a new plate containing pre-warmed challenge media.
Excess fluorescent dye was washed with PBS, the coverslip was mounted on a glass slide using 5 μL of SlowFade (Invitrogen, Carlsbad, CA) and the edges sealed with fingernail polish. CLSM image stacks (z-step size of 0.3 μm) were acquired with the aid of a Leica TCS SP8 microscope, as described above. Quantitative analysis was performed by determination of pellicle biomass using COMSTAT^54 and the Otsu method of automatic thresholding.^85
To expand the observations made with flow cell biofilms into a second biofilm model, the susceptibility of biofilms grown at the air-liquid interface (pellicles) was also studied.^56-57 Pellicle biofilms (henceforth pellicles) are an attractive alternative platform to study biofilms because pellicles are amenable to imaging by CLSM and to harvesting, which can be desirable for additional biofilm analysis.^26 To determine the susceptibility of pellicles to antibiotics or inhibitors of the BfrB-Bfd complex, 2-day old pellicles of EYFP-expressing P. aeruginosa cells were cultured in PI media supplemented with 20 μM Fe. The pellicles were transferred onto glass coverslips by allowing the surface of the coverslip to contact a pellicle.

[5] = tested on: EYFP-expressing P. aeruginosa PAO1 pellicle biofilms; assay: Determination of viable cells (CFU/mL) in pellicle biofilms; conditions: for % cell survival, CFU/mL(after treatment)/CFU/mL(pre-treatment): 2-day old pellicles, 24 h
Description: as §1
Pellicle biofilms were grown as described above. Planktonic and loosely attached cells were washed (3 times) by immersing the coverslip-adhered pellicles (biofilm facing up) into a well of a 12-well plate containing 3 mL of PBS, and incubating (5 min) with gentle rocking. To remove the pellicle from the coverslip, break the extracellular matrix and release cells from the biofilm, the coverslip-adhered pellicle was placed in a 50 mL conical tube containing a 2 mL suspension of zirconia beads (0.1 mm diameter, BioSpec Products), 10 mL PBS, 0.2 μg/mL alginate lyase and 0.2 μg/mL DNAse. The resultant mixture was incubated at room temperature for 3 min, followed by vigorous vortexing for 4 min. After sedimentation of the zirconia beads, a 100 μL aliquot was used for serial dilution and plating on PIA plates for subsequent enumeration of viable cells (CFU/mL).
To assess the efficacy of antibiotics and compounds with an approach complementary to imaging with CLSM, dispersing biofilm cells for subsequent enumeration of viable cells (CFU/mL) was resorted to. […] The biofilms were then harvested, and the cells dispersed into sterile PBS by vortexing in the presence of zirconia beads, prior to plating the cell suspensions for subsequent enumeration of CFU/mL. […] A characteristic of cells in the VBNC state is their inability to develop into colonies on routine culture media, even though the cells remain viable for long periods of time.^58-59 Evidence that bacterial cells can enter the VBNC has been obtained by several distinct methods,^59 one of which is the utilization of bacteria engineered to constitutively express bioluminescent proteins, and using the bioluminescence as a reporter of metabolic activity.

[6] = tested on: P. aeruginosa; conditions: reported MIC; cited from earlier work
[7] = Aqueous solubility; type: physicochemical; conditions: aqueous solution
[8] = planktonic growth, 24 h, 35° C, defined media, 2% DMSO, average ± SD of three experiments

## O=C1NC(=O)c2c(NCCCc3cc(O)cc(O)c3)cccc21 [KM-5-57]
[1]
  Kd: 2.5 ± 0.4 µM
[1]; relative to 16
  fold increase of Kd relative to 16: ~1.7 fold
[2]; [8]
  IC50: > 200 µM

## colistin
[3]
  % survival (biomass remaining viable, COMSTAT): ~20%
[4]
  tolerance or susceptibility of pellicle biofilms (CLSM): susceptible
[4]; colistin at 50× the MIC
  fluorescence signal from viable cells expressing EYFP: undetectable
[5]; antibiotic at 25× the MIC
  % cell survival, CFU/mL(after treatment)/CFU/mL(pre-treatment): ~10%
[5]; antibiotic at 50× the MIC
  % cell survival, CFU/mL(after treatment)/CFU/mL(pre-treatment): ~1%
[6]
  MIC: 1 μg/mL and 0.79 μM

## O=C(O)c1cn(C2CC2)c2cc(N3CCNCC3)c(F)cc2c1=O [ciprofloxacin]
[6]
  MIC: 0.25 μg/mL and 0.75 μM

## O=C1NC(=O)c2c(NCCCc3ccccc3O)cccc21 [KM-5-28]
[1]
  Kd: 1.4 ± 0.2 µM
[2]; [8]
  IC50: 96 ± 1 µM

## O=C1NC(=O)c2c(NCc3c(O)cccc3Cl)cccc21 [KM-5-29, 4-((6-Chloro-2-hydroxybenzyl)amino)isoindoline-1,3-dione]
[1]
  Kd: 6 ± 0.5 µM
[7]
  aqueous solubility (in words): poorly soluble in aqueous solution

## O=C1NC(=O)c2c(NCc3cc(O)cc(Cl)c3)cccc21 [KM-5-50, 4-((5-Chloro-3-hydroxybenzyl)amino)isoindoline-1,3-dione]
[1]
  Kd: 11 ± 2 µM
[2]; [8]
  IC50: 82 ± 16 µM

## O=C1NC(=O)c2c(NCc3cccc(Cl)c3O)cccc21 [KM-5-30, 4-((3-Chloro-2-hydroxybenzyl)amino)isoindoline-1,3-dione]
[1]
  Kd: 6 ± 1 µM
[2]; [8]
  IC50: 156 ± 30 µM
[2]; relative to KM-5-25
  fold larger IC50 relative to KM-5-25: ~2.5 fold

## O=C1NC(=O)c2c(NCCCc3cccc(O)c3)cccc21 [Analog 16]
[1]
  Kd: 1.5 ± 0.25 µM
[2]; [8]
  IC50: 121 ± 4 µM
[5]; pellicles treated 24 h with 50 μM of each analog
  relative compound activity (rank order): KM-5-66>KM-5-25>16>11

## O=C1NC(=O)c2c(NCCCc3cc(F)ccc3O)cccc21 [JAG-5-6]
[1]
  Kd: 0.43 ± 0.07 µM
[1]; relative to KM-5-28
  fold lowered Kd relative to KM-5-28: ~3 fold
[2]; [8]
  IC50: 54 ± 9 µM
[2]; relative to KM-5-28
  fold decrease in IC50 relative to KM-5-28: ~2 fold

## NC[C@H]1O[C@H](O[C@H]2[C@H](O)[C@@H](O[C@H]3O[C@H](CO)[C@@H](O)[C@H](N)[C@H]3O)[C@H](N)C[C@@H]2N)[C@H](N)C[C@@H]1O [tobramycin, reference compound]
[3]
  % survival (biomass remaining viable, COMSTAT): ~70%
[4]
  tolerance or susceptibility of pellicle biofilms (CLSM): tolerant
[5]; antibiotic at 25× the MIC
  % cell survival, CFU/mL(after treatment)/CFU/mL(pre-treatment): ~70%
[5]; antibiotic at 50× the MIC
  % cell survival, CFU/mL(after treatment)/CFU/mL(pre-treatment): ~70%
[6]
  MIC: 0.5 μg/mL and 1.07 μM

## Nc1cccc2c1C(=O)NC2=O [Analog 8]
[2]; [8]
  IC50 (μM): Not active

## O=C1NC(=O)c2c(NCc3cccc(O)c3)cccc21 [Analog 12]
[1]
  Kd: 21 ± 3 µM
[2]; [8]
  IC50: > 120 µM

## O=C1NC(=O)c2c(NCc3cc(F)ccc3O)cccc21 [JAG-5-7, 4-((5-Fluoro-2-hydroxybenzyl)amino)isoindoline-1,3-dione]
[1]
  Kd: 7 ± 2 µM
[2]; [8]
  IC50: 128 ± 26 µM

## O=C1NC(=O)c2c(NCCCc3cc(Cl)ccc3O)cccc21 [KM-5-54]
[1]
  Kd: 0.22 ± 0.04 µM
[1]; relative to JAG-5-6
  fold increase of binding affinity relative to JAG-5-6: 2 fold
[7]
  aqueous solubility (in words): poor water solubility

## O=C1NC(=O)c2c(NCc3ccccc3O)cccc21 [Analog 11]
[2]; [8]
  IC50: 258 ± 23 µM
